Laboratory results published in PubChem BioAssay (NCI).
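Briefly, cells in 96-well plates were exposed to five compound concentrations for 48 h, and endpoints were estimated by linear interpolation. Here, GI50 denotes the concentration required for 50% inhibition of growth. TGI: concentration producing complete growth inhibition.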

Assays:
Test in all cases: NCI-60 cell line screen, 48 h
[1] = tested on: HCT-116 colon
[2] = tested on: TK-10 renal
[3] = tested on: MCF7 breast
[4] = tested on: EKVX NSCLC
[5] = tested on: LOX IMVI melanoma
[6] = tested on: NCI-H23 lung
[7] = tested on: BT-549 breast
[8] = tested on: DU-145 prostate
[9] = tested on: OVCAR-8 ovarian
[10] = tested on: UACC-62 melanoma

Compound	TGI [1] [µM]	TGI [2] [µM]	TGI [3] [µM]	TGI [4] [µM]	TGI [5] [µM]	TGI [6] [µM]	TGI [7] [µM]	TGI [8] [µM]	TGI [9] [µM]	TGI [10] [µM]	GI50 [1] [µM]	GI50 [2] [µM]	GI50 [3] [µM]	GI50 [4] [µM]	GI50 [5] [µM]	GI50 [6] [µM]	GI50 [7] [µM]	GI50 [8] [µM]	GI50 [9] [µM]	GI50 [10] [µM]
O=C1C=CC(=Nc2ccccc2)c2ccccc21	24.4	31.6	21.4	12.9	16.9	13.1	28	3.14	24.6	12.9	–	–	–	–	–	–	–	–	–	–
COc1ccc2c(Cc3c4ccccc4cc4ccccc34)cncc2c1O	16.1	17.6	> 38.2	50.1	8.5	85.3	53.1	> 22.4	5.74	> 44.2	–	–	–	–	–	–	–	–	–	–
O=c1c2c(c3ccccc3n1-c1ccccc1)NC(=S)NC2c1ccc(Cl)cc1 (stereo not given)	7.32	> 100	> 100	94.4	33.4	50.7	26	28.5	> 100	10.6	1.96	9.62	4.75	2.91	2.59	2.74	3.73	3	4.01	1.49
c1ccc(CN2CCC3(CC2)SSC2(CCN(Cc4ccccc4)CC2)SS3)cc1	> 100	> 100	> 100	62	> 100	> 100	> 100	> 100	> 100	> 100	–	–	–	–	–	–	–	–	–	–
CCCCCCCCCCC/C=C\C[C@H](O)C/C=C1/C(=O)C=C[C@@H]1C/C=C\CCCC(=O)OC	1.83	9.78	4.08	2.04	1.05	1.58	1.8	5.57	4.64	1.33	0.734	1.95	0.754	0.766	0.536	0.687	0.75	1.35	0.966	0.553
Nc1ccccc1NC(=O)c1ccc(CN2CCC/C(=C\c3ccccn3)C2=O)cc1	> 100	4.18	> 100	> 100	3.07	> 100	> 100	> 100	> 100	2.35	0.381	0.107	0.797	3.75	0.696	2.11	3.2	3.15	0.878	0.411
CCC(CCC(C)C1CCC2C3CC=C4CC(OC5OC(CO)C(O)C(O)C5O)CCC4(C)C3CCC12C)C(C)C (stereo not given)	> 100	> 100	> 100	> 100	> 100	> 100	> 100	> 100	> 100	> 100	–	–	–	–	–	–	–	–	–	–
Cn1c2ccccc2c(=O)c2c(O)cc3c(c21)CC(C1(C)CO1)O3 (stereo not given)	3.06	42	1.89	14	0.0613	4.14	4.5	36.1	2.51	4.9	–	–	–	–	–	–	–	–	–	–
CCC(C)[C@H](NC(=O)NC(=O)NC(=O)CI)C(=O)OC (stereo not given in full)	18.3	11.8	12.9	30.6	3.27	35.8	22.4	28.4	29.3	24.7	6.05	2.96	3.02	16.7	1.69	16.3	10.6	15.2	13.6	11.3
CC1=C(C(=O)Nc2ccc3[nH]ncc3c2)C(c2ccc(Cl)c(Cl)c2)CC(=O)N1 (stereo not given)	> 25	> 25	> 25	> 25	> 25	> 25	> 25	> 25	> 25	> 25	19.4	> 12.5	> 24.1	> 14.6	> 22.3	> 25	4.99	> 25	> 25	18.1
CC1(C)CCCC(C)(C2CCC3(C)C2C(O)CC2C4(C)CCC(O)C(C)(C)C4C(O)CC23C)O1 (stereo not given)	> 100	25.4	29.3	32.5	> 100	25.6	28.5	32.4	41.9	27.5	–	–	–	–	–	–	–	–	–	–
COc1cc2oc(-c3ccc(O)cc3O)c(CC=C(C)C)c(=O)c2c(O)c1/C=C/C(C)C	3.93	14.1	7.56	15.3	3.32	8.87	11.4	11	3.18	10.4	–	–	–	–	–	–	–	–	–	–
CC(=O)c1ccc(Nc2nc(Nc3ccc(F)cc3)nc(Nc3ccc(F)cc3)n2)cc1	> 100	42.2	61.2	57.8	> 100	> 100	31.5	55.7	24.8	> 100	12.7	15.6	4.12	12.3	18.2	35.7	10.1	14.8	6.91	28.9
CCCCCCCCCCCCCCCC(=O)N[C@H](/C=C/[C@H](O)CCCCCCCCCCCCC)CO	> 100	> 100	> 100	> 100	> 100	> 100	> 100	> 100	> 100	> 100	> 100	> 100	> 100	> 100	> 100	> 100	> 100	> 100	> 100	> 100
COc1cc(/C=C2\Oc3cc(OCCCN4CCCC4)ccc3C2=O)cc(OC)c1	8.34	25.4	13.4	21.9	3.05	18.7	21.7	12.8	15.4	11.7	2.78	11.4	2.94	9.6	1.6	4.75	8.76	3.68	3.71	2.78
